Measurements reported in ChEMBL document CHEMBL1149588, “Inhibition of colon cancer cell growth and antioxidant activity of bioactive compounds from Poncirus trifoliata (L.) Raf” (Bioorg Med Chem, 2007).
The source made the active and inactive calls. The calls are words filed in the database; no cut-off is given here.

How the values were obtained:
[1] = Growth inhibition of monkey COS1 cells at 0.63 uM after 48 hrs by MTT assay; assay type: cell-based, Macaca mulatta; conditions: rhesus monkey, cos-1, 48 h
[2] = Growth inhibition of monkey COS1 cells at 2.5 uM after 48 hrs by MTT assay; assay type: cell-based, Macaca mulatta; conditions: rhesus monkey, cos-1, 48 h
[3] = Growth inhibition of monkey COS1 cells at 1.25 uM after 48 hrs by MTT assay; assay type: cell-based, Macaca mulatta; conditions: rhesus monkey, cos-1, 48 h
[4] = test system: HT-29; experiment: Induction of apoptosis in human HT29 cells at 5 uM; assay type: functional, cell-based
[5] = Growth inhibition of monkey COS1 cells at 5 uM after 48 hrs by MTT assay; assay type: cell-based, Macaca mulatta; conditions: rhesus monkey, cos-1, 48 h
[6] = test system: HT-29; experiment: Antiproliferative activity against human HT29 cells at 5 uM after 24 hrs by MTT assay; assay type: functional, cell-based

## COC(=O)C(O)(CC(=O)O)CC(=O)O
[1]
  Activity: Non-toxic
[2]
  Activity: Non-toxic
[3]
  Activity: Non-toxic
[4]
  Activity: Active
[5]
  Activity: Non-toxic
[6]
  Activity: Active

## CC[C@@]1(O)C(=O)OCc2c1cc1n(c2=O)Cc2cc3ccccc3nc2-1
[4]
  Activity: Active

## CCC(CC[C@@H](C)[C@H]1CC[C@H]2[C@@H]3CC=C4C[C@@H](O)CC[C@]4(C)[C@H]3CC[C@]12C)C(C)C (single isomer, unassigned) [BETA-SITOSTEROL]
[1]
  Activity: Non-toxic
[2]
  Activity: Non-toxic
[3]
  Activity: Non-toxic
[4]
  Activity: Active
[5]
  Activity: Non-toxic
[6]
  Activity: Active
